From patent US20030203975A1, “Anti-cancer agents” (priority 1998, published 2003)

How the values were obtained:
[1] = system: DNA: Calf thymus sodium salt; experiment: DNA binding assay, ethidium bromide displacement; set-up: key: NB = Not binding; settings: concentration required to displace 50% of the ethidium bromide; 20 μM DNA, 2 μM dye
Experimental: (§1) The propensity of selected compounds to bind to DNA in the absence of topos was measured in order to identify compounds that would bind weakly, or not at all. […] A […] was used determine binding constants of the compound to DNA by displacement of either ethidium bromide (an intercalator) or Hoechst dye 33258 (a groove binder) which form a DNA-bound fluorescent complex measured by fluorescence spectroscopy.
(§2) DNA Binding Assay Protocol
(§3) In order to detect the strength and mode of anthraquinone compound binding to DNA the displacement of known DNA binders was detected by measuring the fluorescence of a DNA/fluorescent compound complex. The addition of known concentrations of ethidium bromide, an interchelator, and Hoescht Dye, a groove binder, cause a fluorescent DNA/binder complex that can be detected and the fluorescence quantified. The addition of anthraquinone compounds displaces the interchelators or groove binders, depending on the compound mode of DNA binding, and therefore reduces the fluorescence accordingly. The preferred binding action of compounds can be quantified by determining the reduction in fluorescence resulting from a given concentration of compound. The quantification of a compounds ability to bind to DNA is expressed, as the concentration required to displace 50% of the ethidium bromide or Hoescht Dye, thus reducing the fluorescence by 50%. Therefore, the values produced are QE50 for ethidium, bromide, or QH50 for Hoescht Dye.
(§4) Compound: 300, 60, 10 and 10/6gM (1.66 μM) solution concentrations were prepared for use in the assay to produce a range of compound. Concentrations. 100, 200 and 300 μl of each dilution were used in the assay reaction. This provides a range of concentrations: −30, 20, 10, 6, 4, 2, 1, 0.67, 0.33, 0.17, 0.11, 0.06, 0.00 μM in the assay environment. Intermediate concentrations can be utilised to enhance the accuracy of the displacement concentration determination.
(§5) Buffer: 100 mM Tris, NaCI 500 mM. DNA: Calf thymus sodium salt. Stock solution of 200 μM was prepared in 10× assay buffer. Dilution of DNA therefore provided the correct concentration of assay buffer in the assay cell.300 μg DNA was used in 3 ml reaction mixture therefore 20 μM DNA concentration. Hoescht Dye 2 μM final concentration, therefore 100 μl of a 60 μM stock solution was added to a 3 ml assay. Ethidium Bromide 2 μM final concentration therefore 100 μl of a 60 μM stock solution was added to a 3 ml assay. Distilled H2O Water was added to produce 3 ml reaction volume. Order of addition: 1. DNA, 2. Water, 3. Drug, 4. Dye
(§6) The assay was completed with both Hoescht Dye and Ethidium. Bromide for each compound. The ethidium bromide is a DNA inter-chelator, Hoescht Dye is a minor groove binder. 100, 200 and […] of the lowest compound dilution was assayed. This procedure was repeated with all further dilution's. This provided a curve of fluorescence intensity decrease with increasing compound concentration. QE50 and QH50 values were determined by extrapolating the concentration of compound at the point where the fluorescence intensity was reduced by 50%. Controls involving compound only and ethidium. bromide or Hoechst Dye without compound were carried out for each experiment. Two readings for each concentration of compound were performed per experiment, each experiment was repeated at least three times. Fluorometer: Perkin Elmer Luminescence Spectrometer LS 50B.

[2] = target: T1, Topoisomerase IIβ (Homo sapiens, UniProt Q02880); experiment: Topo II decatenation assay; format: biochemical; settings: unit not given; kDNA substrate; compound at 1, 10, 25 and 50 μM in protocol
T1 sequence (Q02880 whole entry): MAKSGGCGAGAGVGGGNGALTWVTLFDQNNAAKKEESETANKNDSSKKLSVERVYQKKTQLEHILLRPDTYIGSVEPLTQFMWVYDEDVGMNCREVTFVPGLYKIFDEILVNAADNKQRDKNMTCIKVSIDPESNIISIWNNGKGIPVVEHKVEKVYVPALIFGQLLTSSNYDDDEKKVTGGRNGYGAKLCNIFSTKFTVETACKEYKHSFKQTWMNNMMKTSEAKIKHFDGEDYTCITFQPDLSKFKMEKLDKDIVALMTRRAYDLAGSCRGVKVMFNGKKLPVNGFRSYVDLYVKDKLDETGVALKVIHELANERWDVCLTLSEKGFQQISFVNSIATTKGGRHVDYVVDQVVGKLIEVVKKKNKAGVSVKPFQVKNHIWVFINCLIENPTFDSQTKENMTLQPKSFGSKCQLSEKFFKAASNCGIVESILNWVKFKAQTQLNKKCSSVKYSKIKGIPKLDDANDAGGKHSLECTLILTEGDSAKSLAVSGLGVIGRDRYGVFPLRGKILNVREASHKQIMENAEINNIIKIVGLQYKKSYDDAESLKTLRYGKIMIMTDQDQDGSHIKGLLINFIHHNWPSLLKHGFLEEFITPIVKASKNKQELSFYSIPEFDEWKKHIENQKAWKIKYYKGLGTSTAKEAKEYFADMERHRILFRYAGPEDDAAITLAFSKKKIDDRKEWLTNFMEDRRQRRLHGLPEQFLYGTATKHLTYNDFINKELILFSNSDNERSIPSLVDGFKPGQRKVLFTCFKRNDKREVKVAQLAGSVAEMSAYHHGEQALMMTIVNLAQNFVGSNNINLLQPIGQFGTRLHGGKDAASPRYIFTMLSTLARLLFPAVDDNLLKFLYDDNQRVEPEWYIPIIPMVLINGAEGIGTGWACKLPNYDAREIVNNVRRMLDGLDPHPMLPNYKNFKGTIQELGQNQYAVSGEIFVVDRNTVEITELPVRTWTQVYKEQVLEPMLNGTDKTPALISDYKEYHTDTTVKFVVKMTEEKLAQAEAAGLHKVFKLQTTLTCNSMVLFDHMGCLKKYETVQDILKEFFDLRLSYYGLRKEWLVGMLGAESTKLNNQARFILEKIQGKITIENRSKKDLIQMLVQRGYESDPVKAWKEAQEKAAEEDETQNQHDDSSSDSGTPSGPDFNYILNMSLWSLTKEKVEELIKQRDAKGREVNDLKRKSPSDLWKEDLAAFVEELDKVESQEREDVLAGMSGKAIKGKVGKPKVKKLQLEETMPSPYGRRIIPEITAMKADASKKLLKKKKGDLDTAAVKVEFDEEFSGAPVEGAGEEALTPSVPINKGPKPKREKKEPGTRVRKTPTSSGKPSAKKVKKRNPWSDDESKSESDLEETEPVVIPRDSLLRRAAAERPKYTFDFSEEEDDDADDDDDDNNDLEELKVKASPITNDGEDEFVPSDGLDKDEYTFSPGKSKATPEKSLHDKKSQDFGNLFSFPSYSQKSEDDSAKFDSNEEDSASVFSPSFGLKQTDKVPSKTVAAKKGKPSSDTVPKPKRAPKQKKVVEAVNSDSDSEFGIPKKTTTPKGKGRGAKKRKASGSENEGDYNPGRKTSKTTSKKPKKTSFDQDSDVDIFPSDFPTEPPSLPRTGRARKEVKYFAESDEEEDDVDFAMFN
Experimental: Topisomerase Decatenation Assay.
This method uses catenated DNA substrate prepared from the kinetoplast of the insect trypanosome Crithidia fasciculata. Upon incubation with topo II, which engages DNA in a double stranded breakage-reunion cycle, DNA minicircles are released. Addition of topo-inhibiting drugs may prevent decatenation.
Topo II Decatenation Assay Protocol
This assay is the same as the Topo II Relaxation assay except that the pBR 322 Plasmid DNA is replaced with kDNA.
Results are included in Table 3 below

[3] = target: T2, Topoisomerase IIα (Homo sapiens, UniProt P11388); experiment: Topo II cleavage assay; format: biochemical; set-up: key: ‘—’ = Not active; settings: unit not given; compound at 1, 10, 25 and 50 μM in protocol
T2 sequence (P11388 whole entry): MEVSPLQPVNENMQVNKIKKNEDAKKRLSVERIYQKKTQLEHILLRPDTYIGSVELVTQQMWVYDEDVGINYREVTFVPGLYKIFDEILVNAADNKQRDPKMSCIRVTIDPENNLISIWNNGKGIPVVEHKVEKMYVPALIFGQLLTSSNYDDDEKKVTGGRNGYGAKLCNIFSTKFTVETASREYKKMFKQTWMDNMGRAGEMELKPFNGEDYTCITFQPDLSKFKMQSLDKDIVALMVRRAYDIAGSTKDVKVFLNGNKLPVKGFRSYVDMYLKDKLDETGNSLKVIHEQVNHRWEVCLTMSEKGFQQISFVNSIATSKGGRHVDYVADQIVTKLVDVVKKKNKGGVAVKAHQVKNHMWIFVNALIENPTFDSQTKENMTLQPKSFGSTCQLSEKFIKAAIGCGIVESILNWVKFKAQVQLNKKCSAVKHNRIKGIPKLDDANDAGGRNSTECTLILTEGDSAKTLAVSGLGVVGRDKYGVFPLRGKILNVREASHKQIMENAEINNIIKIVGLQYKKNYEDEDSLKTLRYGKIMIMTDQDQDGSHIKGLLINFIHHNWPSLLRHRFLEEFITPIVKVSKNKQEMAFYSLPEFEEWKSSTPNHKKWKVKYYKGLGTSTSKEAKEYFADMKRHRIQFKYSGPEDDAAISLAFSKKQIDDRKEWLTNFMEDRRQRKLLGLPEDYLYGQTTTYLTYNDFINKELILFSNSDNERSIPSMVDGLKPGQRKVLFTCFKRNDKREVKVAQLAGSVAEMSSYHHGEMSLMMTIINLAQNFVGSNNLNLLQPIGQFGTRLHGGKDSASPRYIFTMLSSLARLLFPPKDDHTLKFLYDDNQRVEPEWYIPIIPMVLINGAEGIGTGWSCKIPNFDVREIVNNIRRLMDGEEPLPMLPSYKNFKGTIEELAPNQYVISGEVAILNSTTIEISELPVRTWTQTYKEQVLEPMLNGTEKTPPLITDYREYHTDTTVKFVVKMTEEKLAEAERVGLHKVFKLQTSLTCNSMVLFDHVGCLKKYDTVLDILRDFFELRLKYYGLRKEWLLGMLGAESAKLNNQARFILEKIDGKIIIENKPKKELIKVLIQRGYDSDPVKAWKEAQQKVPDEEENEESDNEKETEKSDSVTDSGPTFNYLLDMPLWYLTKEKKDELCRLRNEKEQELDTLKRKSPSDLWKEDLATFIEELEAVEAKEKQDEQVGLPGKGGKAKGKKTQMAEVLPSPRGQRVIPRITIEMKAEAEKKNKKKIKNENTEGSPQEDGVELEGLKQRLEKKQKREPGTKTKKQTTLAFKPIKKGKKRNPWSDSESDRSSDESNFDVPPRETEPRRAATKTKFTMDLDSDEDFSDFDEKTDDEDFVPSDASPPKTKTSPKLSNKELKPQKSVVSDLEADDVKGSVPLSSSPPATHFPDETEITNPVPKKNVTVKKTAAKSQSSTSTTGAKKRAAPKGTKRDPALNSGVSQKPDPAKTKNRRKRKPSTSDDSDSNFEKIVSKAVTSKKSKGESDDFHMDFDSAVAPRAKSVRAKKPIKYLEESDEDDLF
Experimental: Topo II 5 μl (1-1 μg); […] Results are included in Table 3 below.

[4] = system: DNA: Calf thymus sodium salt; experiment: DNA binding assay, Hoechst dye displacement; set-up: key: NB = Not binding; settings: concentration required to displace 50% of the Hoescht Dye; 20 μM DNA, 2 μM dye
Experimental: as §1, §2, §3, §4, §5, §6

[5] = target: T1, Topoisomerase IIβ; experiment: Topo II relaxation assay; format: biochemical; set-up: key: ‘—’ = Not active; settings: unit not given; compound at 1, 10, 25 and 50 μM in protocol
Experimental: (§7) Topo II Relaxation Assay Protocol
(§8) 10×Topo II Relaxation Buffer
(§9) 500 mM Tris-HCl (pH 7.5); 100 mM mgCI2; 50 mM EDTA; 300 mg/mI BSA; 10 mM DTT; −20° C.

[6] = target: T2, Topoisomerase IIα; experiment: Topo II relaxation assay; format: biochemical; set-up: key: ‘—’ = Not active; settings: unit not given; compound at 1, 10, 25 and 50 μM in protocol
Experimental: as §7, §8, §9

With `C[C@H](N)C(=O)OCCCCNc1cccc2c1C(=O)c1ccccc1C2=O.O=C(O)C(F)(F)F` [Example 43, 1-[4-(L-alanyloxy)butylamino]anthracene-9,10-dione trifluoroacetate] the “QE50 Intercalating” value [1] was “NB”, the “TopIIβ Decat.” value [2] was 25 and the “TopIIα Cleave.” value [3] was “—”. The “QH50 Minor groove binding” value [4] was “NB”, the “TopIIβ Relax.” value [5] was 15 and the “TopIIα Relax.” value [6] was “—”.
For `C[C@@H](N)C(=O)OCCCCNc1cccc2c1C(=O)c1ccccc1C2=O.O=C(O)C(F)(F)F` [Example 45, 1-[4-(D-alanyloxy)butylamino]anthracene-9,10-dione trifluoroacetate], the “QE50 Intercalating” value [1] was “NB”, the “TopIIβ Decat.” value [2] was 20 and the “TopIIα Cleave.” value [3] was “—”. For the same compound, the “QH50 Minor groove binding” value [4] was “NB”, the “TopIIβ Relax.” value [5] was 25 and the “TopIIα Relax.” value [6] was “—”.
